Laboratory results reported in patent US20080076729A1, “Interferon-beta gene therapy using an improved, regulated expression system” (Schering Aktiengesellachaft, priority 2005, published 2008).

System: JE
Experiment: JE chemokine level in plasma of treated mice by ELISA
Assay type: in vivo
Conditions: bolus protein, each of three doses
Description: FIG. 7 illustrates induction levels of IP-10 (A) and JE (B) following i.v. or i.m. injection of murine IFN-β protein. C57BL/6 mice were administered 15, 150, or 500 ng of purified recombinant mIFN-β protein (specific activity=2.0×10^8 units/mg) by either i.v. (via tail vein) or i.m. injection (n=3 mice per group). The mice were bled at 2, 4, 6, 12, 24, and 48 hours post-injection, and the plasma levels of IP-10 and JE were measured by ELISA (R&D Systems).
FIG. 19 illustrates IP-10 and JE induction with a pBRES mIFN-β regulated expression system of the present invention.
• A. Development of mIFN-β Biomarkers: For higher sensitivity in detection of murine IFN-β (mIFN-β) activity in vivo, biomarkers for mIFN-β activity were identified in mice after injection of mIFN-β protein or mIFN-β encoded gene therapy vectors. […] In the present study, the expression of the MxA mouse homologue, Mx1, (see e.g., Hug, H et al. Mol Cell Biol 8: 3065-79; Pavlovic, J (1993) Ciba Found Symp 176: 233-43) isolated from murine peripheral blood monocytes (PBMC's) was used to detect the presence of biologically active mIFN-β. • A quantitative PCR/RT-PCR assay was developed to quantitate the levels of Mx1 mRNA in murine PBMC's. […] The samples were analyzed with an Mx1-specific probe/primer combination. […] The highest Mx1 expression levels were measured 2 hours after injection. […]

mIFN-β: purified recombinant murine interferon-beta protein
time by which plasma JE dropped to background: ≤ 24 h
